According to article PMC6504873, “High-throughput screening of the Plasmodium falciparum cGMP-dependent protein kinase identified a thiazole scaffold which kills erythrocytic and sexual stage parasites” (Scientific Reports, 2019):

Key:
HepG2 cells = experiment: Cytotoxicity assay (CellTiter-Glo); type: cell-based; details: Homo sapiens; HepG2 cytotoxicity; read-out: HepG2
Experimental: Cytotoxicity assays were performed on HepG2 cells as previously described. HepG2 cells were removed from a T-175 TC flask using 5 mL Eagle’s MEM (containing 10% FBS, 1% NEAA, 1% penicillin/streptomycin) and dispersed in the medium. Seeding density was checked to ensure that new mono-layers were not more than 50% confluent at the time of harvesting. Cells were added to 500 mL of the same medium at a final density of 1.2 × 10^5 cells/mL. They were then dispensed (25 μL, about 3,000 cells per well) into 384-well clear-bottom plates using a Multidrop Combi dispenser. Test compounds (250 nL) were dispensed into the plates with an EchoH liquid handler prior to addition of the cells. Plates were incubated for 48 h at 37 °C, 5% CO2. After incubation, plates were equilibrated at room temperature for 30 minutes before proceeding to develop the luminescent signal. The CellTiter-GloH Reagent was allowed to equilibrate at room temperature for 30 minutes and added to the plates (25 μL per well) using a Multidrop Combi dispenser. Plates were left for 10 minutes at room temperature for stabilization and then read using a Perkin Elmer ViewLux.

HuPKGIα = molecular target: T1, HuPKGIα (Homo sapiens, UniProt Q13976); experiment: Kinase Glo enzymatic assay, human PKG; type: biochemical; details: human PKGIα; read-out: Hu PKGIα
T1 construct: His6; host or cells: Spodoptera frugiperda 21 cells (baculovirus)
T1 sequence (Q13976 1-671): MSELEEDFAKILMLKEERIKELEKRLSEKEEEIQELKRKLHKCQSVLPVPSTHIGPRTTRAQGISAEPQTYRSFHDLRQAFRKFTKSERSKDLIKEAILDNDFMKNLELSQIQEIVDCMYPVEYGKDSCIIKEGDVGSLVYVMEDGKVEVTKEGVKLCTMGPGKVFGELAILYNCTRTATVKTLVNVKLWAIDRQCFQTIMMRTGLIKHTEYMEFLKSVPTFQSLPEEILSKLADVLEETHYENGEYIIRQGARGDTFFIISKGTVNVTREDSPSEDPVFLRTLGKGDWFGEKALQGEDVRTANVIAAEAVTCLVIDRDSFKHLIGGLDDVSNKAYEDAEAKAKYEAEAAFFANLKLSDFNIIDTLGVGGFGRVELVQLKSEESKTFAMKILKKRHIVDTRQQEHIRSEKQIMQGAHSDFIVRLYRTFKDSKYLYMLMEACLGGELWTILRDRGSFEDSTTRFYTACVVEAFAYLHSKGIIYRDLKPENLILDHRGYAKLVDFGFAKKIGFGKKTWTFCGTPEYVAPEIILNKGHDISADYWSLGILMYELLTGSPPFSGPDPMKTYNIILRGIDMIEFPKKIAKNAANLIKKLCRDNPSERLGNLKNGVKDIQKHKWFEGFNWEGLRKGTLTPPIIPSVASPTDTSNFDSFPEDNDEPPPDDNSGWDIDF
Experimental: To identify new PKG inhibitor scaffolds, the 1.7 million GlaxoSmithKline Full Diversity collection was tested at a single final concentration of 10 μM against recombinant full length wild type (WT) PfPKG using a Kinase Glo-based assay (Promega). […] Fresh samples of these primary hits were tested in duplicate against WT PfPKG and also against human PKGIα (HuPKGIα) (Supplementary Fig. 1) at a final concentration of 10 μM (confirmation step).
The expression vector encoding His6-cGK1α (HuPKGIα) was used to generate recombinant baculoviruses using the Bac-to-Bac system (Invitrogen) following the manufacturer’s protocol. These baculoviruses were used to infect Spodoptera frugiperda 21 cells (1.5 × 10^6/ml) at a multiplicity of infection of 5 and the infected cells were harvested 48 hours post-infection. His6-cGK1α was purified on Cobalt agarose and dialysed into 50 mM Tris-HCl pH 7.5, 0.1 mM EGTA, 150 mM NaCl, 270 mM sucrose, 0.03% Brij-35, 0.1% 2-mercaptoethanol, 1 mM benzamidine, 0.1 mM phenylmethylsulfonyl fluoride (PMSF).
Initial optimization of the PKG assay was performed manually in 384-well plates and analysed with GraFit 7. The buffer for all assays was 25 mM HEPES pH 7.3 (GIBCO), 10 mM MgCl2 (Sigma), 2 mM DTT (Sigma), 0.01 mM cGMP (Sigma), 0.1 mg/ml BSA (Ambion). Enzymatic activity was tested using a luminescence-based kit (Promega KinaseGlo). Addition of the first reagent depletes the unused ATP and addition of the second reagent converts ADP (product of the kinase reaction) to ATP, which is then measured through a luciferin/luciferase reaction. The amount of luminescence is directly proportional to ATP turnover by the kinase. The kit was chosen because it can be miniaturized to small volumes (i.e. 4 µl) in 1536-well plates, for use in HTS.
We used PKA peptide substrate (SCP0212, Sigma-Aldrich) for WT and TQ PfPKG, dissolved in milliQ water at a final concentration of 5 mM, and Long S6 peptide substrate (produced at the University of Dundee, sequence […]) for HuPKGIα, dissolved in water at a final concentration of 30 mM.
We calculated the Michaelis-Menten (Km) constant for ATP and peptide substrate (PKA or Long S6) for all enzymes using GraphPad Prism (Supplementary Figs 2 and 3 and Supplementary Table 3). In order to identify different types of PKG inhibitors, including ATP competitive or non-competitive inhibitors, as well as inhibitors that bind to the peptide substrate pocket, we performed all assays using ATP and peptide substrate at a concentration equal to the Km. We also determined enzyme activity by calculating ATP turnover (Kcat) over the Km (Supplementary Table 3). The Kcat was calculated as (Vmax*slope)/[E] where Vmax is the maximum velocity and [E] is the concentration of the enzyme.
The plates containing the compounds were prepared at GSK in Upper Providence or Stevenage. Compounds were tested at a single final concentration of 10 µM or in a dose response with a range of concentrations starting from 100 μM to 1.6 nM (1 in 3 serial dilutions). Compounds were dispensed in the plates at the required concentration in a 40 nl volume. All plates (1536-well white Greiner) contained 40 nl of DMSO in lanes 11 and 12 (control 1, 100% enzyme activity) and were empty in lanes 35 and 36 (control 2, 0% enzyme activity). The plates were removed from −20 °C 1 hour before starting the assay. Using a Multidrop Combi dispenser (Thermo Scientific), 2 µl of the buffer containing ATP and the substrate were added to all wells then 2 µl of buffer only were added to column 35 and 36. Finally 2 µl of buffer containing the enzyme were dispensed in all the plate wells except for lanes 35 and 36. After 1 hour incubation at 21 °C 2 µl of ADP-Glo reagent (Promega KinaseGlo kit), previously supplemented with 0.02% CHAPS (Sigma), were added to all wells.

SMILES	IC50 (HepG2 cells) [µM]	IC50 (HuPKGIα) [µM]
Cc1ccc(S(C)(=O)=O)cc1Nc1nccc(-c2sc(CC(N)=O)nc2-c2ccccc2)n1 [Compound 3]	50.1	> 100
CNCCOc1cnc(-c2ccoc2C)c(-c2ccc3cnccc3c2)c1 [Compound 13]	63.1	7.4
COc1ccc(CCNC(=O)CSc2ncnc3[nH]ncc23)cc1OC [Compound 8]	> 100	> 100
COc1cc(CS(C)(=O)=O)ccc1Nc1nc(Nc2cc(F)ccc2C(N)=O)c2cc[nH]c2n1 [Compound 10]	> 100	> 100
COc1cccc(Nc2nc(-c3ccncc3)cc(N3CCN(C)CC3)n2)c1 [Compound 9]	5	> 100
NCCNCc1ccc(-c2cc3ccncc3cc2OC2CCNCC2)s1 [Compound 12]	> 100	13.8
CCn1c(-c2nonc2N)nc2c(-c3ccccc3)ncc(CN(C)C3CCN(C)CC3)c21 [Compound 5]	12.6	40.3
CCn1cc(-c2ccncn2)c(-c2cccc(NS(=O)(=O)c3cc(F)ccc3F)c2)n1 [Compound 2]	> 100	> 100
Nc1nc(Nc2cccc3cnccc23)nn1C(=O)C1CCCCC1 [Compound 16]	79.4	22.4
COc1ccc(-c2c(-c3cccc(C(=O)N4CCN(C)CC4)c3)oc3ncnc(N)c23)cc1 [Compound 7]	> 100	> 100
CNS(=O)(=O)c1cccc(Nc2ccnc(Nc3cccc(S(=O)(=O)NC)c3)n2)c1 [Compound 6]	25.1	44.2
Nc1ccc2c(-c3ccncc3)c(-c3ccc(Cl)c(O)c3)[nH]c2n1 [Compound 15]	20	45.2
O=C(c1cccc(OCc2cccnc2)c1)N1CCc2sccc2C1CN1CCCCC1 (stereo not drawn) [Compound 14]	> 100	> 100
O=C(N[C@@H](CO)c1ccccc1)c1ccc2cncc(-c3cn[nH]c3)c2n1 [Compound 11]	> 100	6.1
CC(C)(CN)c1cc(-c2ccc(Cl)c(O)c2)c(-c2ccncc2)o1 [Compound 4]	12.6	15
